“Also recorded” adds a separate entry of the source. Starred links: 1 amine or outer side, 2 acyl side, 3 side chain; linkers in the order of their positions; H or OH if unused. Positions of bridges follow the written chain, without caps; N, C: chain ends. Non-standard residues stand in square brackets, D forms with d. Residues, ends and D or L forms follow the SMILES beside them. Chains are numbered I, II in the order given. Actinocin(9to1) = Cc1c2oc3c(C)ccc(C(=O)[*:1])c3nc-2c(C(=O)[*:2])c(N)c1=O; NMeV = CN[C@H](C(=O)O)C(C)C; Sar = CNCC(=O)O
Columns and labels:
[1] = test system: FGF-1-NIH 3T3 transfectants; settings: agent in the media of cultured cells exposed to heat shock; cited from earlier work
[2] = test system: NIH 3T3 FGF-1-β-gal:p65 Syn-1 co-transfectants; assay: Effects of pharmacologic inhibitors on heat shock induced release of p40; format: cell-based, murine; settings: heat shock 42° C. for 100 min
Description: (§1) Stable NIH 3T3 FGF-1:β-gal transfectants were co-transfected with either p65 Syn-1, p65(Δ120-214) or p40 and maintained in Dulbecco's modified Eagle's medium (DMEM, GIBCO-BRL, Grand Island, N.Y.) containing 10% (v/v) bovine calf serum (BCS, Hyclone, Logan, Utah), 1× antibiotic-antimycotic (GIBCO-BRL) and 200 μg/ml G418 (GIBCO-BRL) and 250 μg/ml hygromycin (Boehringer Mannheim, Indianapolis, Ind.) on sterile tissue culture dishes coated with 10 μg/cm^2 human fibronectin prepared from human plasma by affinity adsorption to a column of immobilized type I collagen by methods well known in the art. Confluent monolayers of co-transfectants were rinsed with DMEM containing 4 U/ml heparin (Upjohn, Kalamazoo, Mich.) and subjected to heat shock (42° C. for 100 min) in DMEM containing 4 U/ml heparin and 0.5% BCS as described (Jackson et al., Proc. Nat. Acad. Sci. USA 89:10691, 1992). For each Syn-1 construct, three independent co-transfectant clones were tested.
Following heat shock, conditioned media were collected, filtered using 0.2 μm filters (Millipore, Bedfore, Mass. ) according to the supplier's recommendations, and activated with 0.1% (w/v) dithiothreitol (DTT, Sigma, St. Louis, Mo.) for 2 h at 37° C. (Jackson et al., J. Biol. Chem. 270:33, 1995). Conditioned media were then passed over a column of heparin-Sepharose™ CL-6B (Pharmacia Biotech, Piscataway, N.J.) equilibrated and eluted with 50 mM Tris pH 7.4 containing 10 mM EDTA (TE buffer, TEB). Following TEB washing, the column was eluted with 1.5 M NaCl in TEB and the eluate collected and concentrated using a Centricon™ 10 concentrator (Amicon, Inc., Beverly, Mass.) according to the manufacturer's instructions. Aliquots of the concentrated eluates were analyzed by 10% sodium dodecylsulfate polyacrylamide gel electrophoresis (SDS-PAGE) as described (Jackson et al., J. Biol Chem. 270:33, 1995). Electrophoretically separated samples were further characterized by immunoblot analysis as described (Jackson et al., Proc. Nat. Acad. Sci. USA 89:10691, 1992). […]

[3] = test system: NIH-3T3 FGF-1-β-gal:p40 Syn-1 co-transfectants; assay: p40 Syn-1 release from p40 Syn-1 co-transfectants at 37° C. or after heat shock, Syn-1 immunoblot; format: cell-based, murine; settings: FIG. 18
Description: Amlexanox was also tested for an effect on the heat shock response of NIH-3T3 FGF-1-β-gal:p40 Syn-1 co-transfectants described above in Example 11. Media were conditioned by two 150 mm dishes of NIH3T3 cells stably co-transfected with FGF-1:β-Gal and rat p40 Syn-1 after exposure to temperature stress (41.5° C., 90 min) with or without treatment. The media were collected and resolved by 10% acrylamide SDS-PAGE under reducing conditions followed by immunoblot analysis for Syn-1 as described herein and in the cited references.
(FIG. 18: Lane 1: media derived from NIH3T3 cell FGF-1:β-Gal and p40 Syn1 co-transfectants maintained at 37° C. for 90 min. Lane 2: media derived from NIH3T3 cell FGF-1:β-gal and p40 Syn-1 co-transfectants following heat shock. Lanes 3 and 4: media derived from NIH3T3 cell FGF-1:β-gal and p40 Syn-1 co-transfectants maintained at 37° C. in the presence of 5×10^−5M, and […] AA673 (amlexanox) respectively. Lane 5: media derived from NIH3T3 cell FGF-1:β-gal and p40 Syn-1 co-transfectants following heat shock in the presence of 3×10^−4M, AA673. Lane 6: 50 ng of recombinant rat p40 Syn-1.)

[4] = test system: 3T3 cell line transfected with a chimeric FGF-1 construct having a functional signal sequence; assay: Secretion by 3T3 cell line transfected with chimeric FGF-1 construct having a functional signal sequence (classical ER-Golgi pathway); format: cell-based; settings: not shown
Description: In a concentration dependent fashion, amlexanox inhibited the release of both FGF-1-β-gal and Syn-1 from NIH 3T3 FGF-1-β-gal:p65 Syn-1 co-transfectants in response to heat shock (FIG. 17). […] A 3T3 cell line transfected with a chimeric FGF-1 construct having a functional signal sequence for secretion via the classical ER-Golgi protein secretory pathway (Forough et al., J. Biol. Chem. 268:2960, 1993) was unaffected by amlexanox by several phenotypic criteria, including secretory activity (not shown).

[5] = test system: NIH 3T3 FGF-1-β-gal:p65 Syn-1 co-transfectants; assay: Heat shock induced release of FGF-1-β-gal and Syn-1 from co-transfectants, immunoblot of heparin binding fraction of conditioned medium; format: cell-based, murine; settings: heat shock 41.5° C. for 90 min; concentration dependent; FIG. 17
Description: as §1, with “Confluent monolayers of co-transfectants were rinsed with DMEM containing 4 U/ml heparin (Upjohn, Kalamazoo, Mich.) and subjected to heat shock (42° C. for 100 min) in DMEM containing 4 U/ml heparin and 0.5% BCS as described (Jackson et al., Proc.” left out, “For each Syn-1 construct, three independent co-transfectant clones were tested.” left out
Following heat shock, conditioned media were collected, filtered using 0.2 μm filters (Millipore, Bedfore, Mass. ) according to the supplier's recommendations, and activated with 0.1% (w/v) dithiothreitol (DTT, Sigma, St. Louis, Mo.) for 2 h at 37° C. […] Aliquots of the concentrated eluates were analyzed by 10% sodium dodecylsulfate polyacrylamide gel electrophoresis (SDS-PAGE) as described (Jackson et al., J. Biol Chem. 270:33, 1995). […]
In this Example, the effects of members of the amlexanox family of pharmacologic agents known to bind to S100A13 (Oyama et al., Biochem. Biophys. Res. Commun. 240:341, 1997) were evaluated in cell based assay systems for export of FGF1:Syn-1 complexes in vitro. […]

[6] = test system: NIH 3T3 FGF-1 transfectants; assay: Heat shock induced FGF-1 and p40 Syn-1 release by FGF-1 transfectants, immunoblot of conditioned media; format: cell-based, murine
Description: Chemical derivatives of amlexanox were tested for their effects on FGF-1 and p40 Syn-1 release by NIH 3T3 FGF-1 transfectants in response to heat shock. Media were conditioned by three 150 mm dishes of NIH3T3 cells stably transfected with FGF-1α (residues 21-154) after exposure to 41.5° C. for 90 min with or without amlexanox or the indicated amlexanox derivative. The media were collected and resolved by 12.5% acrylamide SDS-PAGE under reducing conditions followed by immunoblot analysis for FGF-1 as described herein.
(FIG. 19: Lane 1: media derived from NIH3T3 cell FGF-1 transfectants following heat shock in the absence of any drug; Lanes 2 through 4: media derived from NIH3T3 cell FGF-1 transfectants following heat shock in the presence of 1×10^−6 M, 1×10^−5 M, 1×10^−4 M, A673 (amlexanox) respectively; Lanes 5 through 7: media derived from NIH3T3 cell FGF-1 transfectants following heat shock in the presence of 1×10^−6 M, 1×10^−5 M, 1×10^−4 M AA617 respectively; Lanes 8 through 10: media derived from NIH3T3 cell FGF-1 transfectants following heat shock in the presence of 1×10^−6 M, 1×10^−5 M, 1×10^−4 M AA648 respectively; Lanes 11 through 13: media derived from NIH3T3 cell FGF-1 transfectants following heat shock in the presence of 1×10^−6 M, 1×10^−5 M, 1×10^−4 M, AA777 respectively; Lane 14: media derived from NIH3T3 cell FGF-1 transfectants maintained at 37° C. for 90 min; Lane 15, 50 ng of recombinant human FGF-1α. The structures of amlexanox (AA673) and its derivatives are also shown.

[7] = molecular target: the molecule itself; assay: Cu2+ oxidation, non-reduced SDS-PAGE
Description: Purified FGF-1 and p40 Syn-1 were incubated with, and without, Cu²⁺ for 10 min. and resolved on two non-reduced SDS-PAGE gels (A and B), as described by Maciag et al., Recent Prog. Horm. Res. 49:105-123 (1993). The systems were identical except gel 5B was immunoblotted with FGF-1 antibody, whereas gel 5A was not.
However, when FGF-1 and p40 Syn-1 were added together, non-reduced SDS-PAGE was able to resolve a unique component with an apparent Mᵣ˜66,000 (FIG. 6A). To determine whether this band contained FGF-1, this experiment was repeated and analyzed by FGF-1 immunoblot analysis.

[8] = 41.5° C. for 90 min, 1×10^−6 M, 1×10^−5 M, 1×10^−4 M, FIG. 19

In the case of `Cc1c2oc3c(C)ccc(C(=O)N[C@@H]4C(=O)N[C@H](C(C)C)C(=O)N5CCC[C@H]5C(=O)N(C)CC(=O)N(C)[C@@H](C(C)C)C(=O)O[C@@H]4C)c3nc-2c(C(=O)N[C@@H]2C(=O)N[C@H](C(C)C)C(=O)N3CCC[C@H]3C(=O)N(C)CC(=O)N(C)[C@@H](C(C)C)C(=O)O[C@@H]2C)c(N)c1=O` [actinomycin D] (I: T[dV]P[Sar][NMeV] / II: T[dV]P[Sar][NMeV]; ester I:1-I:C, II:1-II:C; linker I:N-II:N via Actinocin(9to1)), the “release of latent FGF-1” value [1] is listed as “inhibited” and the “heat shock induced release of p40” value [2] is listed as “inhibited”.

With `CC(C)c1ccc2oc3nc(N)c(C(=O)O)cc3c(=O)c2c1` [amlexanox] the “constitutive release of p40 Syn-1” value ([3]; 37° C., 5×10^−5M and 3×10^−1M AA673) was “no effect”, the “enhanced p40 export in response to heat shock” value ([3]; heat shock 41.5° C., 90 min, 3×10^−4M AA673) was “did inhibit” and the “effect on phenotypic criteria, including secretory activity” value [4] was “unaffected”. The “release of FGF-1-β-gal in response to heat shock” value [5] was “inhibited; also recorded: inhibition”, the “release of Syn-1 in response to heat shock” value [5] was “inhibited; also recorded: inhibition” and the “FGF-1 release in response to temperature stress” value [6, 8] was “inhibition”. For the same molecule, the “p40 Syn-1 release in response to temperature stress” value [6, 8] was “inhibition” and the “FGF-1 release in response to heat shock” value ([6]; NIH 3T3 cell line stably transfected with FGF-1 instead of FGF-1-β-gal, not shown) was “inhibited FGF-1 release”.

With `C[C@H]1CCC/C=C/[C@@H]2C[C@H](O)C[C@H]2[C@H](O)/C=C/C(=O)O1` [brefeldin A] the “heat shock induced release of p40” value [2] was “unaffected”.

In the case of `C[C@@H]1C[C@@H]([C@H](O)CC2CC(=O)NC(=O)C2)C(=O)[C@@H](C)C1` [cycloheximide], the “release of latent FGF-1” value [1] is listed as “inhibited” and the “heat shock induced release of p40” value [2] is listed as “inhibited”.

B1: recombinant human p40 Syn-1 (other, UniProt P21579 104-422, looked up)
chain: MKDVKDLGKTMKDQALKDDDAETGLTDGEEKEEPKEEEKLGKLQYSLDYDFQNNQLLVGIIQAAELPALDMGGTSDPYVKVFLLPDKKKKFETKVHRKTLNPVFNEQFTFKVPYSELGGKTLVMAVYDFDRFSKHDIIGEFKVPMNTVDFGHVTEEWRDLQSAEKEEQEKLGDICFSLRYVPTAGKLTVVILEAKNLKKMDVGGLSDPYVKIHLMQNGKRLKKKKTTIKKNTLNPYYNESFSFEVPFEQIQKVQVVVTVLDYDKIGKNDAIGKVFVGYNSTGAELRHWSDMLANPRRPIAQWHTLQVEEEVDAMLAVKK
notes: domain: p40 form of Syn-1; also called p45; p40/45
B1: no binding [7].

Reference: US20040071787A1, “Pharmacologic, therapeutic and diagnostic regulation of FGF-1 export” (Maine Medical Center Research Institute, priority 1996, published 2004)
